One test has as its target human (hACC2) (Homo sapiens, UniProt O00763). Nature of the test: In vitro ACC inhibition assay (ADP-Glo), hACC2. It is filed as biochemical. The note with it: 5 nM ACC2, 20 μM ATP, 20 μM acetyl-CoA. On the procedure: The detailed procedure is as follows. […] 10 μL ADP glo reagent was added. […] 20 μL kinase detection reagent was added.
In general terms: In ADP-Glo the light output rises with the ADP produced.

A further test has as its system Rhizoctonia solani (Rs). The experiment in a line: Growth inhibition assay of fungal pathogens, Rs. The note with it: 48 h. It is filed as cell-based. On the procedure: Compounds of the present invention were evaluated in a growth inhibition assay to determine the ability to control the growth of fungal pathogens, such as Botrtyis cinerea (Bc), Collectotrichum graminicola (Cg), Diplodia maydis (Dm), Fusarium moniliforme (Fm), Fusarium virguliforme (Fv), Phytophthora capsici (Pc), Rhizoctonia solani (Rs), and Septoria tritici (St).
Compounds to be tested were dissolved in DMSO at 2.5 mg/ml to produce compound stock solutions (“stocks”). Stocks were diluted with DMSO by a five-fold dilution in a 96-well stock plate, and two sets of final concentrations of 50, 10, and 2 ppm or 2, 0.4, and 0.08 ppm were obtained in vitro. A set of positive controls was also prepared, with various concentrations of Soraphen (2, 0.4, and 0.08 ppm), Metalaxyl (1.1, 0.22, and 0.04 ppm), and Metconazole (2, 0.4, and 0.08 ppm or 0.2, 0.04, and 0.008 ppm) after the five-fold dilutions. Negative controls on each plate included 2% DMSO, water, and a blank (media+2% DMSO).
Fungal spores were isolated from previously sub-cultured plates of Botrtyis cinerea (Bc), Collectotrichum graminicola (Cg), Diplodia maydis (Dm), Fusarium moniliforme (Fm), Fusarium virguliforme (Fv), Phytophthora capsici (Pc), and Septoria tritici (St). The isolated spores were diluted to individual concentrations with a 17% V8 liquid media. For Rhizoctonia solani (Rs) and Pythium irregulare, 1.5 mm mycelial plugs were used in place of spores and/4 Potato Dextrose Broth (PDB) was used for dilution. The spore concentrations and plug sizes were based on growth curves generated at 48 hours for each pathogen.
In a second 96-well plate, the spores or mycelial plugs, media, diluted compound solutions, and controls were combined. Once the compound was added, a true final concentration of compound in each well was measured by an OD600 reading, which adjusted for any compound precipitation that might have occurred in the well. Plate readings were repeated at both 24 and 48 hours. The blank negative control was used as a background subtraction. Additional visual ratings were performed at both 24 and 48 hours for checking on precipitation and confirming efficacy. Visual and OD600 ratings of the compounds at 48 hours were compared to the 2% DMSO negative control, and the percent of pathogen growth inhibition was determined based on those values.

[1] abbreviates: mycelial plugs, growth inhibition at 48 hours vs 2% DMSO control, read-out: Concentration at 90% Inhibition Rs.
[2] abbreviates: mycelial plugs, growth inhibition vs 2% DMSO control at 48 hours, read-out: Concentration at 90% Inhibition Rs.
Setting [3] is: read-out: Concentration at 90% Inhibition Rs, Rhizoctonia solani, mycelial plugs, growth inhibition at 48 hours vs 2% DMSO control.
Setting [4] is: read-out: Concentration at 90% Inhibition Rs, Rhizoctonia solani, mycelial plugs, growth inhibition vs 2% DMSO control at 48 hours.

The record followed here is patent US10800791B2, “Triazole ACC inhibitors and uses thereof” (Gilead Apollo, LLC, priority 2015, dated 2020).

The structures appear in SMILES notation. Values after ≈ are worked out from the molar mass of the structure shown. Where two headings read alike, the source gives them in different places.

human (hACC2), sequence (O00763 whole entry): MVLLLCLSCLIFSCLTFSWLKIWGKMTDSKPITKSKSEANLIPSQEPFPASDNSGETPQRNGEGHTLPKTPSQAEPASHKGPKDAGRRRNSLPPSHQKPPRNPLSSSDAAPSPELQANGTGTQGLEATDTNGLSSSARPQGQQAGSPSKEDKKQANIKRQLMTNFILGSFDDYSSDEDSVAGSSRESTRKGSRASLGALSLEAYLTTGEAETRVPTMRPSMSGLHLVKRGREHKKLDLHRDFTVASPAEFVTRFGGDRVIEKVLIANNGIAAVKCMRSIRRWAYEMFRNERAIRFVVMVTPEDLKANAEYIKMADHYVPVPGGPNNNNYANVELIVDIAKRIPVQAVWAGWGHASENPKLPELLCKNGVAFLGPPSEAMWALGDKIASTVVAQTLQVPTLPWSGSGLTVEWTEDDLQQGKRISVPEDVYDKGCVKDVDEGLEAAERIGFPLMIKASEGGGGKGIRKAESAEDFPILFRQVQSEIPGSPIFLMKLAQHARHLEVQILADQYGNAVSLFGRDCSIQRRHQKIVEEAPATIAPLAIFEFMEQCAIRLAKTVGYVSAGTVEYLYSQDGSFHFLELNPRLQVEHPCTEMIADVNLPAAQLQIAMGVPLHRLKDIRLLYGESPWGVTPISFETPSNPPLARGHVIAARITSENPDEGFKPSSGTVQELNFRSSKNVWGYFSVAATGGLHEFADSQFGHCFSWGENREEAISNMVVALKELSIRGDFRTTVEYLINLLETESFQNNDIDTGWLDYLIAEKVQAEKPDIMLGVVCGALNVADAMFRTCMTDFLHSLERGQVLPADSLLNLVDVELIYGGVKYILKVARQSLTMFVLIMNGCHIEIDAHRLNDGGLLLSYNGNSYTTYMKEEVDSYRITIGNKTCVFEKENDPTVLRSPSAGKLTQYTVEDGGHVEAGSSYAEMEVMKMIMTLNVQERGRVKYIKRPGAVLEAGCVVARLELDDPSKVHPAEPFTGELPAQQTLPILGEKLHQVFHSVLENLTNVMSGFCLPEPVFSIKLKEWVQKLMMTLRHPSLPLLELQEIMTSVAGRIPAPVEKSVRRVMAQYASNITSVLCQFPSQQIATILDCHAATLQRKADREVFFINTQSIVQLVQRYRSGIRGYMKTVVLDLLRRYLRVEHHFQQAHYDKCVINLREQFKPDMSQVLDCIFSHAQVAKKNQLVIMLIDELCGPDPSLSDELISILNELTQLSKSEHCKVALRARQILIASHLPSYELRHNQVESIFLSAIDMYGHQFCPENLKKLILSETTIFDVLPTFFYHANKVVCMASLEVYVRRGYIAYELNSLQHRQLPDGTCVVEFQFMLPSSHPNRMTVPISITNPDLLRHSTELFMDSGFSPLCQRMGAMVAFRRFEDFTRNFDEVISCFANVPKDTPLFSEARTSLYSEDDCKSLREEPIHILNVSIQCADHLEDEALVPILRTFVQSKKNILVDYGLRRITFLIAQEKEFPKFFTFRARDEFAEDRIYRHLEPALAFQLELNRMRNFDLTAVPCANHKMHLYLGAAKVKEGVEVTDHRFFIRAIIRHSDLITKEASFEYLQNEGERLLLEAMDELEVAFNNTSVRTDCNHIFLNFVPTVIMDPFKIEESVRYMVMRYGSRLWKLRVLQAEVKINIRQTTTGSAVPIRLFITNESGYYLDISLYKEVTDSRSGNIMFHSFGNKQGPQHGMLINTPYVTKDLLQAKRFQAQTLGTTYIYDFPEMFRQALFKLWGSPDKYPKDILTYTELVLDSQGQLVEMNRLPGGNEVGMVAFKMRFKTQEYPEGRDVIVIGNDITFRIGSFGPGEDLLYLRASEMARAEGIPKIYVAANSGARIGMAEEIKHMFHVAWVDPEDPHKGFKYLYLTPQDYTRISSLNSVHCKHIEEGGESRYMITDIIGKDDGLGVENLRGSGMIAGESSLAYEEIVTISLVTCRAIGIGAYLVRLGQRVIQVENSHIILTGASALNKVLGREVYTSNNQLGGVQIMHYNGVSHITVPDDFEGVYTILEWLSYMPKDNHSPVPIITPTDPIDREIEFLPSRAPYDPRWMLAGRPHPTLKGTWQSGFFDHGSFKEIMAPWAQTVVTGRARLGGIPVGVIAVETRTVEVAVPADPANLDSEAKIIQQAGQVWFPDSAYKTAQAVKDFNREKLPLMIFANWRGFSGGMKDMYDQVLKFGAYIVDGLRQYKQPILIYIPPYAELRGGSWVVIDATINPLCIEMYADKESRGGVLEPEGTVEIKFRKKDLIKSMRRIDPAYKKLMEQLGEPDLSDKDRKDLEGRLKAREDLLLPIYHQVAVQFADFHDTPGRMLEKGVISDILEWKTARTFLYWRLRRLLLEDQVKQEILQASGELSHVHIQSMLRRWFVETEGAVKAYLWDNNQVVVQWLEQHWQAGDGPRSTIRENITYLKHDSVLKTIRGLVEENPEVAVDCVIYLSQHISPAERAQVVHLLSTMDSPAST

`COc1ccccc1[C@H](Cn1c(=O)n(C(C)(C)C(=O)N2CCCC2)c(=O)c2c(C)c(-n3nccn3)sc21)OC1CCOCC1` [Compound I-18, (R)-1-(2-(2-methoxyphenyl)-2-((tetrahydro-2H-pyran-4-yl)oxy)ethyl)-5-methyl-3-(2-methyl-1-oxo-1-(pyrrolidin-1-yl)propan-2-yl)-6-(2H-1,2,3-triazol-2-yl)thieno[2,3-d]pyrimidine-2,4(1H,3H)-dione]: the concentration for half-maximal inhibition (IC50) (as a rule, the concentration at which inhibition is half-maximal) against human (hACC2) (Table 2a) fell in the range of 5 to 10 nM; on human (hACC2) (Table 2b, additional results) it was 5 to 10 nM. In addition, the IC90 with Rhizoctonia solani (Rs) (setting [1]) and with Rhizoctonia solani (Rs) (setting [2]) was 0.08 µg/mL (≈ 0.128 µM) each time.
Consider `COc1ccccc1[C@H](Cn1c(=O)n(C(C)(C)C(=O)NC2CCC2)c(=O)c2c(C)c(-n3nccn3)sc21)OC1CCOCC1` [Compound I-20, (R)—N-cyclobutyl-2-(1-(2-(2-methoxyphenyl)-2-((tetrahydro-2H-pyran-4-yl)oxy)ethyl)-5-methyl-2,4-dioxo-6-(2H-1,2,3-triazol-2-yl)-1,4-dihydrothieno[2,3-d]pyrimidin-3(2H)-yl)-2-methylpropanamide], for which the concentration for half-maximal inhibition (IC50) was in the range of 5 to 10 nM against human (hACC2) (Table 2a) and 5 to 10 nM against human (hACC2) (Table 2b, additional results). Besides, the IC90 in the test with Rhizoctonia solani (Rs) (setting [1]) and in the test with Rhizoctonia solani (Rs) (setting [2]) was 0.08 µg/mL (≈ 0.128 µM) throughout.
Regarding `COc1ccccc1[C@H](Cn1c(=O)n(C(C)(C)C(=O)NC2CCCCC2)c(=O)c2c(C)c(-n3nccn3)sc21)OC1CCOCC1` [Compound I-21, (R)—N-cyclohexyl-2-(1-(2-(2-methoxyphenyl)-2-((tetra-hydro-2H-pyran-4-yl)oxy)ethyl)-5-methyl-2,4-dioxo-6-(2H-1,2,3-triazol-2-yl)-1,4-dihydrothieno[2,3-d]pyrimidin-3(2H)-yl)-2-methylpropanamide], the IC50 against human (hACC2) (Table 2a) is 5 to 10 nM; against human (hACC2) (Table 2b, additional results) it was 5 to 10 nM. Also, the IC90 in the test with Rhizoctonia solani (Rs) (setting [3]) and with Rhizoctonia solani (Rs) (setting [4]) was 0.4 µg/mL (≈ 0.615 µM) throughout.
For `CCNC(=O)C(C)(C)n1c(=O)c2c(C)c(-n3nccn3)sc2n(C[C@H](OC2CCOCC2)c2cc(F)ccc2OC)c1=O` [Compound I-22, (R)—N-ethyl-2-(1-(2-(5-fluoro-2-methoxyphenyl)-2-((tetrahydro-2H-pyran-4-yl)oxy)ethyl)-5-methyl-2,4-dioxo-6-(2H-1,2,3-triazol-2-yl)-1,4-dihydrothieno[2,3-d]pyrimidin-3(2H)-yl)-2-methylpropanamide], the IC50 against human (hACC2) (Table 2a) is 5 to 10 nM; against human (hACC2) (Table 2b, additional results) it was 5 to 10 nM. The IC90 in the test on Rhizoctonia solani (Rs) (setting [1]) and in the test on Rhizoctonia solani (Rs) (setting [2]) was 0.4 µg/mL (≈ 0.651 µM) throughout.
In the case of `COc1ccc(F)cc1[C@H](Cn1c(=O)n(C(C)(C)C(=O)NC(C)C)c(=O)c2c(C)c(-n3nccn3)sc21)OC1CCOCC1` [Compound I-23, (R)-2-(1-(2-(5-fluoro-2-methoxyphenyl)-2-((tetrahydro-2H-pyran-4-yl)oxy)ethyl)-5-methyl-2,4-dioxo-6-(2H-1,2,3-triazol-2-yl)-1,4-dihydro-thieno[2,3-d]pyrimidin-3(2H)-yl)-N-isopropyl-2-methylpropanamide], the 50% inhibitory concentration (IC50) against human (hACC2) (Table 2a) is 5 to 10 nM; against human (hACC2) (Table 2b, additional results), 5 to 10 nM. In addition, the IC90 in the test with Rhizoctonia solani (Rs) (setting [3]) and in the test on Rhizoctonia solani (Rs) (setting [4]) was 0.08 µg/mL (≈ 0.127 µM) in each case.
Take `COc1ccc(F)cc1[C@H](Cn1c(=O)n(C(C)(C)C(=O)N2CCCC2)c(=O)c2c(C)c(-n3nccn3)sc21)OC1CCOCC1` [Compound I-25]: the IC50 against human (hACC2) (Table 2a) is 5 to 10 nM; on human (hACC2) (Table 2b, additional results), 5 to 10 nM. Further, the IC90 in the test with Rhizoctonia solani (Rs) (setting [1]) and in the test on Rhizoctonia solani (Rs) (setting [2]) was 0.08 µg/mL (≈ 0.125 µM) throughout.
Turning to `COc1ccc(F)cc1[C@H](Cn1c(=O)n(CC(=O)N2CCCC2)c(=O)c2c(C)c(-n3nccn3)sc21)OC(C)C` [Compound I-36, (R)-1-(2-(5-fluoro-2-methoxyphenyl)-2-isopropoxyethyl)-5-methyl-3-(2-oxo-2-(pyrrolidin-1-yl)ethyl)-6-(2H-1,2,3-triazol-2-yl)thieno[2,3-d]pyrimidine-2,4(1H,3H)-dione], the IC50 at human (hACC2) (Table 2a) fell in the range of 1 to 5 nM; against human (hACC2) (Table 2b, additional results), 1 to 5 nM. Also, the IC90 in the test with Rhizoctonia solani (Rs) (setting [1]) and with Rhizoctonia solani (Rs) (setting [2]) was 0.4 µg/mL (≈ 0.701 µM) each time.
Consider `COc1ccc(F)cc1[C@H](Cn1c(=O)n([C@@H](C)C(=O)NC(C)C)c(=O)c2c(C)c(-n3nccn3)sc21)OC(C)C` [Compound I-37, (S)-2-(1-((R)-2-(5-fluoro-2-methoxyphenyl)-2-isopropoxyethyl)-5-methyl-2,4-dioxo-6-(2H-1,2,3-triazol-2-yl)-1,4-dihydrothieno[2,3-d]pyrimidin-3(2H)-yl)-N-isopropylpropanamide], for which the IC50 against human (hACC2) (Table 2a) lay in the range of 5 to 10 nM; against human (hACC2) (Table 2b, additional results), 5 to 10 nM. Further, the IC90 in the test on Rhizoctonia solani (Rs) (setting [3]) and in the test with Rhizoctonia solani (Rs) (setting [4]) was 0.4 µg/mL (≈ 0.698 µM) in each case.
In the case of `COc1ccc(F)cc1[C@H](Cn1c(=O)n([C@H](C)C(=O)NC(C)C)c(=O)c2c(C)c(-n3nccn3)sc21)OC(C)C` [Compound I-38, (R)-2-(1-((R)-2-(5-fluoro-2-methoxyphenyl)-2-isopropoxy-ethyl)-5-methyl-2,4-dioxo-6-(2H-1,2,3-triazol-2-yl)-1,4-dihydrothieno[2,3-d]pyrimidin-3(2H)-yl)-N-isopropylpropanamide], the concentration for half-maximal inhibition (IC50) on human (hACC2) (Table 2a) lay in the range of 5 to 10 nM; against human (hACC2) (Table 2b, additional results), 5 to 10 nM. Also, the IC90 in the test on Rhizoctonia solani (Rs) (setting [3]) and in the test with Rhizoctonia solani (Rs) (setting [4]) was 0.4 µg/mL (≈ 0.698 µM) in each case.
On to `COc1ccc(F)cc1[C@H](Cn1c(=O)n([C@@H](C)C(=O)N2CCCC2)c(=O)c2c(C)c(-n3nccn3)sc21)OC(C)C` [Compound I-39, 1-((R)-2-(5-fluoro-2-methoxyphenyl)-2-isopropoxyethyl)-5-methyl-3-((S)-1-oxo-1-(pyrrolidin-1-yl)propan-2-yl)-6-(2H-1,2,3-triazol-2-yl)thieno[2,3-d]pyrimidine-2,4(1H,3H)-dione], for which the 50% inhibitory concentration (IC50) at human (hACC2) (Table 2a) lay within 5 to 10 nM; against human (hACC2) (Table 2b, additional results), 1 to 5 nM. The IC90 with Rhizoctonia solani (Rs) (setting [1]) and in the test on Rhizoctonia solani (Rs) (setting [2]) was 0.4 µg/mL (≈ 0.684 µM) in each case.
Consider `COc1ccc(F)cc1[C@H](Cn1c(=O)n(C(C)C(=O)N2CCCC2)c(=O)c2c(C)c(-n3nccn3)sc21)OC(C)C` (stereo partly drawn) [Compound I-40, 1-((R)-2-(5-fluoro-2-methoxyphenyl)-2-isopropoxyethyl)-5-methyl-3-(1-oxo-1-(pyrrolidin-1-yl)propan-2-yl)-6-(2H-1,2,3-triazol-2-yl)thieno[2,3-d]pyrimidine-2,4(1H,3H)-dione], for which the IC50 lay in the range of 5 to 10 nM on human (hACC2) (Table 2a) and 5 to 10 nM against human (hACC2) (Table 2b, additional results). In addition, the figures for the IC90 with Rhizoctonia solani (Rs) (setting [1]) and in the test on Rhizoctonia solani (Rs) (setting [2]) were 0.4 µg/mL (≈ 0.684 µM) and 0.08 µg/mL (≈ 0.137 µM), respectively.
Regarding `COc1ccc(F)cc1[C@H](Cn1c(=O)n(C(C)(C)C(=O)NC(C)C)c(=O)c2c(C)c(-n3nccn3)sc21)OCC(C)(C)O` [Compound I-57, (R)-2-(1-(2-(5-fluoro-2-methoxyphenyl)-2-(2-hydroxy-2-methylpropoxy)ethyl)-5-methyl-2,4-dioxo-6-(2H-1,2,3-triazol-2-yl)-1,4-dihydro-thieno[2,3-d]pyrimidin-3(2H)-yl)-N-isopropyl-2-methylpropanamide], the IC50 is 10 to 40 nM against human (hACC2) (Table 2a) and 10 to 40 nM against human (hACC2) (Table 2b, additional results). The IC90 in the test with Rhizoctonia solani (Rs) (setting [3]) and with Rhizoctonia solani (Rs) (setting [4]) was 0.4 µg/mL (≈ 0.649 µM) each time.
For the compound `COc1ccc(F)cc1[C@H](Cn1c(=O)n(C(C)(C)C(=O)N2CCCC2)c(=O)c2c(C)c(-n3nccn3)sc21)OCC(C)(C)O` [Compound I-58, (R)-1-(2-(5-fluoro-2-methoxyphenyl)-2-(2-hydroxy-2-methylpropoxy)ethyl)-5-methyl-3-(2-methyl-1-oxo-1-(pyrrolidin-1-yl)propan-2-yl)-6-(2H-1,2,3-triazol-2-yl)thieno[2,3-d]pyrimidine-2,4(1H,3H)-dione], the IC50 lay in the range of 10 to 40 nM at human (hACC2) (Table 2a) and 10 to 40 nM against human (hACC2) (Table 2b, additional results). Also, the IC90 in the test on Rhizoctonia solani (Rs) (setting [1]) and with Rhizoctonia solani (Rs) (setting [2]) was 0.4 µg/mL (≈ 0.636 µM) each time.
In the case of `COCCO[C@@H](Cn1c(=O)n(C(C)(C)C(=O)NC(C)C)c(=O)c2c(C)c(-n3nccn3)sc21)c1cc(F)ccc1OC` [Compound I-59, (R)-2-(1-(2-(5-fluoro-2-methoxyphenyl)-2-(2-methoxy-ethoxy)ethyl)-5-methyl-2,4-dioxo-6-(2H-1,2,3-triazol-2-yl)-1,4-dihydro-thieno[2,3-d]pyrimidin-3(2H)-yl)-N-isopropyl-2-methylpropanamide], the IC50 on human (hACC2) (Table 2a) was in the range of 5 to 10 nM; at human (hACC2) (Table 2b, additional results), 5 to 10 nM. Besides, the IC90 in the test on Rhizoctonia solani (Rs) (setting [3]) and in the test with Rhizoctonia solani (Rs) (setting [4]) was 0.4 µg/mL (≈ 0.664 µM) throughout.
